We go through 6 molecules from patent US20250084056A1, “SUBSTITUTED OXOISOINDOLINYL PIPERIDINE-2,6-DIONE COMPOUNDS” (BRISTOL-MYERS SQUIBB COMPANY, priority 2023, published 2025).

One may read the DC50 as the concentration giving 50% degradation. Low values mean a more potent degrader, high ones a less potent degrader. What is called Dmax is the greatest extent of degradation seen. The IC50 is the midpoint of a concentration-inhibition curve. A low value points to inhibition by little substance.

Holding throughout (assay type): cell-based
In one experiment the target is Cyclin E1 (Homo sapiens, UniProt P24864+Q96SW2). Briefly: Cyclin E1 Cellular Degradation Assay (MSD). More on the design: endogenous in cells; host or cells: OVCAR3. Particulars: for Ratio of GSPT1 DC50/Cyclin E1 DC50: selectivity for degradation of Cyclin E1 over GSPT1. The method in brief: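 OVCAR3 cells treated with compound for 24 h at 37 °C, lysed, and cyclin E1 measured by MSD sandwich immunoassay (rabbit capture, mouse detection anti-CCNE1). Reference degrader at […] defined 110% response; DC50 and Dmax derived from response.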
Cyclin E1, sequence (P24864 whole entry): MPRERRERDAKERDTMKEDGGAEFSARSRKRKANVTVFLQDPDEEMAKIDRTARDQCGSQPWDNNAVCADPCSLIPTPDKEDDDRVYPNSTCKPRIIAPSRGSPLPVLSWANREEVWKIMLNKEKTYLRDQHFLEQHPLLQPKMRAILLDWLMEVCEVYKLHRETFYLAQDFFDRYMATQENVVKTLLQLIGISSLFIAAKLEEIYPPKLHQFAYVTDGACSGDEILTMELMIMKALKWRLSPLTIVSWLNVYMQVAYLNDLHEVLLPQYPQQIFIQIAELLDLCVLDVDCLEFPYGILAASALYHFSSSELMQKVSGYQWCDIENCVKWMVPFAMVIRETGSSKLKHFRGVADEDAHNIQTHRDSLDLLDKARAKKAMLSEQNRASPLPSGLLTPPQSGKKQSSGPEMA
Cyclin E1, sequence (Q96SW2 whole entry): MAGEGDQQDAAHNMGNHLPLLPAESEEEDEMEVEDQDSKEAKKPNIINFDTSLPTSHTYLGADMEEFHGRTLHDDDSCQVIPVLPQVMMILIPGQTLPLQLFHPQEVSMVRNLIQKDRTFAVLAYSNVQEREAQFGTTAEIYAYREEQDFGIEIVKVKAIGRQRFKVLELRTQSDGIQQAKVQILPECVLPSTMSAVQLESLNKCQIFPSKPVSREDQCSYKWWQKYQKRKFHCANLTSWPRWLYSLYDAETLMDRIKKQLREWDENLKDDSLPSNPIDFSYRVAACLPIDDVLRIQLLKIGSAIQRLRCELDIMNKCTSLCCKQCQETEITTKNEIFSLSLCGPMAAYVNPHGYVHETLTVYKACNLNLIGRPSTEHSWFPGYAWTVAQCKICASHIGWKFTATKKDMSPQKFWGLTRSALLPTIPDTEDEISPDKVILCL
Cyclin E1, sequence (Q16531 whole entry partner): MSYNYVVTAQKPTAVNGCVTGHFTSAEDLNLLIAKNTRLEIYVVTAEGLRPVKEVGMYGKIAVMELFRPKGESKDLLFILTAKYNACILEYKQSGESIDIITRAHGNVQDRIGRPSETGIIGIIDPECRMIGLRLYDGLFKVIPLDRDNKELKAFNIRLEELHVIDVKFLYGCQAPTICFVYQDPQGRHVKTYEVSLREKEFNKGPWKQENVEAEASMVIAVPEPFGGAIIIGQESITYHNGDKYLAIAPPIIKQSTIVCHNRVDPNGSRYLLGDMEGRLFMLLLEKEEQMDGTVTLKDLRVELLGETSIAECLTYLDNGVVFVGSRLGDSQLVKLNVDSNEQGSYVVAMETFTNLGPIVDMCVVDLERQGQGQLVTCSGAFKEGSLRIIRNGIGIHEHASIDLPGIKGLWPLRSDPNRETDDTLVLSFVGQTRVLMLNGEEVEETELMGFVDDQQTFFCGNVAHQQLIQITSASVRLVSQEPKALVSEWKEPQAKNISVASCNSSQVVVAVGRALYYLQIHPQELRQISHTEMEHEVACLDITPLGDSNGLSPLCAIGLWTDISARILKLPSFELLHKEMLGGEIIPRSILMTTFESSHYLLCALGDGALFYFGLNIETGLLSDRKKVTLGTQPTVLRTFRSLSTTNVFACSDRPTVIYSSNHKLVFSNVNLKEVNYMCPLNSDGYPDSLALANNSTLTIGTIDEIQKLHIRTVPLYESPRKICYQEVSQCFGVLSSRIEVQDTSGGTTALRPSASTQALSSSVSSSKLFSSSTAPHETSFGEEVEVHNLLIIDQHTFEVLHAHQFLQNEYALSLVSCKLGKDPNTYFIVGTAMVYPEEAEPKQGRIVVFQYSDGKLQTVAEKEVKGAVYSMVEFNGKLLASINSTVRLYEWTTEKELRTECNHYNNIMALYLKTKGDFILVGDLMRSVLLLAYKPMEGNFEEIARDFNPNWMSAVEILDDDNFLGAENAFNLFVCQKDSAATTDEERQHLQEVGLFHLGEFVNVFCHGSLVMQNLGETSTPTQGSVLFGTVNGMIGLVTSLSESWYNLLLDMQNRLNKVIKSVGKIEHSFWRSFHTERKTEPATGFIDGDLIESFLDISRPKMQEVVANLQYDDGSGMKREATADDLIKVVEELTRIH

For a further experiment, the system named is Phospho-Rb (Ser807/811). Briefly: Phospho-Retinoblastoma (pRB) Cellular Assay. The settings on record: NIH OVCAR3 cells, 24 hours; for IC50 / Emax: Homo sapiens, OVCAR-3; for IC50: concentration giving 50% response; for Emax: read-out: pRB Ymax. The essentials: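 OVCAR3 cells seeded overnight, then dosed with serial dilutions for 24 h at 37° C. Lysed with kit mix plus phosphatase inhibitor, ≥4 h at room temperature, read on EnVision; 100% response set by reference compound at 10 μM, giving IC50 and Ymax.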

The next experiment addresses GSPT1 (Homo sapiens, UniProt P15170+Q96SW2). Briefly: GSPT1 Cellular Degradation Assay (DF15-GSPT1-ePL). More on the design: expressed in transfected cells. Particulars: DF15-GSPT1-ePL cells, 20 hours. The method in brief:
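Human DF15 cells co-expressing a GSPT1–ePL fusion were treated with compound in RPMI 1640/10% FBS for 20 h at 37 °C. GSPT1 level was read by enzyme-fragment-complementation luminescence after 60 min with detection reagent. The reference degrader at […] defined 75% response; DC50 and Dmax were reported.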

The mark [1] stands for this setting: Cyclin E1 cellular degradation, maximum degradation.
Setting [2] is: maximum response, reference compound at 10 μM = 100%.

Where only a bound is given, the exact number is not on record here.

GSPT1, sequence (P15170 whole entry, the tested form may be a part): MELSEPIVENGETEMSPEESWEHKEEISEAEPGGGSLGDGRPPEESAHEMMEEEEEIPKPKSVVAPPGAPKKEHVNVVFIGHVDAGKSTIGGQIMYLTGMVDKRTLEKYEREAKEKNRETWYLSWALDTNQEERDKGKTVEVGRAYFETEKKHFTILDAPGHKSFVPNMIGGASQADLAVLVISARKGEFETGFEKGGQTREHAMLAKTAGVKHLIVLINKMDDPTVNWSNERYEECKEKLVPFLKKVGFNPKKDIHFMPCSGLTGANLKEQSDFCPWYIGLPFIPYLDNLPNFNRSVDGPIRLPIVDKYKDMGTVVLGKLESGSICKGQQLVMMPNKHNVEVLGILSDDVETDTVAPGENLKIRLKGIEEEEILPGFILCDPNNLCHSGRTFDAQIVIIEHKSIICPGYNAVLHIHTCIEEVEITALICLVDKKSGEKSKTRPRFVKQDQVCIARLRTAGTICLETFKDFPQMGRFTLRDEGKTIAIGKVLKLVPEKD
GSPT1, sequence (Q96SW2 whole entry, the tested form may be a part): as the sequence (Q96SW2 whole entry) above
GSPT1, sequence (Q16531 whole entry partner, the tested form may be a part): as the sequence (Q16531 whole entry partner) above

Take `COc1c(COC(=O)Nc2ccc(Oc3ccccc3)cc2)ccc2c1C(=O)N(C1CCC(=O)NC1=O)C2` (stereo not drawn) [Example 2, [2-(2,6-dioxopiperidin-3-yl)-4-methoxy-3-oxo-2,3-dihydro-1H-isoindol-5-yl]methyl N-(4-phenoxyphenyl)carbamate]: the 50% degradation concentration (DC50) on Cyclin E1 (Cyclin E1 cellular degradation) is 0.078 µM; at GSPT1, more than 14 µM. The Dmax came to 108% on Cyclin E1 (setting [1]) and 32% on GSPT1. The “Ratio of GSPT1 DC50/Cyclin E1 DC50” value at Cyclin E1 was more than 180. Moreover, the 50% inhibitory concentration (IC50) in the experiment on Phospho-Rb (Ser807/811) was 0.083 µM. Further, the Emax in the experiment on Phospho-Rb (Ser807/811) (setting [2]) worked out at 123%.
As to `[2H]C([2H])([2H])c1ccccc1Oc1ccc(NC(=O)OCc2ccc3c(c2OC)C(=O)N(C2CCC(=O)NC2=O)C3)cc1` (stereo not drawn) [Example 92, [2-(2,6-dioxopiperidin-3-yl)-4-methoxy-3-oxo-2,3-dihydro-1H-isoindol-5-yl]methyl N-{4-[2-(^2H3)methylphenoxy]phenyl}carbamate], the “Cyclin E1 Dmax” value at Cyclin E1 (setting [1]) was 114%. On Cyclin E1, the “Ratio of GSPT1 DC50/Cyclin E1 DC50” value is given as more than 82. In addition, in the experiment on Phospho-Rb (Ser807/811) (setting [2]), the “pRB Ymax” value is given as 112%. In addition, the “GSPT1 Dmax” value at GSPT1 was 23%.
As to `CC(C)Oc1c(COC(=O)Nc2ccc(Oc3cccc(Cl)c3)cc2)ccc2c1C(=O)N(C1CCC(=O)NC1=O)C2` (stereo not drawn) [Example 58, [2-(2,6-dioxopiperidin-3-yl)-3-oxo-4-(propan-2-yloxy)-2,3-dihydro-1H-isoindol-5-yl]methyl N-[4-(3-chlorophenoxy)phenyl]carbamate], the DC50 at Cyclin E1 (Cyclin E1 cellular degradation) is 0.139 µM; on GSPT1, more than 14 µM. In addition, the Dmax was 104% at Cyclin E1 (setting [1]) and 48% on GSPT1. The “Ratio of GSPT1 DC50/Cyclin E1 DC50” value on Cyclin E1 was more than 100. In the experiment with Phospho-Rb (Ser807/811), the IC50 worked out at 0.298 µM. Moreover, in the experiment with Phospho-Rb (Ser807/811) (setting [2]), the Emax was 109%.
As to `CC(C)COc1c(COC(=O)Nc2ccc(Oc3ccc(F)c(F)c3)cc2)ccc2c1C(=O)N(C1CCC(=O)NC1=O)C2` (stereo not drawn) [Example 138, [2-(2,6-dioxopiperidin-3-yl)-4-(2-methylpropoxy)-3-oxo-2,3-dihydro-1H-isoindol-5-yl]methyl N-[4-(3,4-difluorophenoxy)phenyl]carbamate], the DC50 is 0.173 µM on Cyclin E1 (Cyclin E1 cellular degradation) and more than 14 µM at GSPT1. Besides, the Dmax was found to be 108% at Cyclin E1 (setting [1]) and 9% on GSPT1. Moreover, on Cyclin E1, the “Ratio of GSPT1 DC50/Cyclin E1 DC50” value is on record as more than 81. The same molecule yielded a 50% inhibitory concentration (IC50) in the experiment with Phospho-Rb (Ser807/811) of 0.045 µM. Also, in the experiment on Phospho-Rb (Ser807/811) (setting [2]), the Emax stood at 120%.
Turning to `COc1cc(Oc2ccc(F)cc2F)ccc1NC(=O)OCc1ccc2c(c1OC)C(=O)N(C1CCC(=O)NC1=O)C2` (stereo not drawn) [Example 49, [2-(2,6-dioxopiperidin-3-yl)-4-methoxy-3-oxo-2,3-dihydro-1H-isoindol-5-yl]methyl N-[4-(2,4-difluorophenoxy)-2-methoxyphenyl]carbamate], the values for the DC50 at Cyclin E1 (Cyclin E1 cellular degradation) and at GSPT1 were 0.077 µM and more than 14 µM, respectively. Also, the figures for the Dmax on Cyclin E1 (setting [1]) and on GSPT1 were 106% and 24%, respectively. The “Ratio of GSPT1 DC50/Cyclin E1 DC50” value at Cyclin E1 was more than 181. This molecule also yielded a concentration for half-maximal inhibition (IC50) in the experiment with Phospho-Rb (Ser807/811) of 0.171 µM. The Emax in the experiment with Phospho-Rb (Ser807/811) (setting [2]) turned out to be 116%.
With `O=C1CCC(N2Cc3ccc(COC(=O)Nc4ccc(Oc5ccc(F)cc5Cl)cc4)c(OC4CCC4)c3C2=O)C(=O)N1` (stereo not drawn) [Example 128, [4-cyclobutoxy-2-(2,6-dioxopiperidin-3-yl)-3-oxo-2,3-dihydro-1H-isoindol-5-yl]methyl N-[4-(2-chloro-4-fluorophenoxy)phenyl]carbamate], the half-maximal degradation concentration (DC50) on Cyclin E1 (Cyclin E1 cellular degradation) was 0.101 µM; on GSPT1, more than 14 µM. For the same molecule, the Dmax at Cyclin E1 (setting [1]) is 106%; at GSPT1, 10%. Also, the “Ratio of GSPT1 DC50/Cyclin E1 DC50” value at Cyclin E1 was more than 139. The molecule further displayed a half-inhibitory concentration (IC50) with Phospho-Rb (Ser807/811) of 0.136 µM. The Emax in the experiment on Phospho-Rb (Ser807/811) (setting [2]) amounted to 124%.
